From patent US20210283220A1, “ANTIBODY MOLECULE-DRUG CONJUGATES AND USES THEREOF” (priority 2017, published 2021)
No end group written: not given here.

Experiments:
E. coli = assay: Minimal inhibitory concentration (MIC) assay, broth microdilution; assay type: cell-based, Escherichia coli; details: for MIC Eco 25922: E. coli 25922; for MIC Eco 43745: E. coli 43745, in the presence of PBS
P. aeruginosa [1] = assay: as above; assay type: cell-based, Pseudomonas aeruginosa
P. aeruginosa 27853 = assay: MIC / killing activity in the presence of human serum (hsMIC, 50% human serum); assay type: cell-based, Pseudomonas aeruginosa; details: for 50% hsMIC Pae 27853: P. aeruginosa 27853, 50% human serum; for hsMIC/MIC: ratio
Description: In an embodiment, the MIC is determined in the presence of phosphate-buffered saline (PBS). In an embodiment, the MIC or hsMIC is determined on per ADC basis. In an embodiment, the MIC or hsMIC is determined on per payload or antimicrobial peptide basis.

P. aeruginosa ATCC 27853 = assay: Resistance rate determination (standard and micro-dotting protocols); assay type: cell-based, Pseudomonas aeruginosa
Description: . These rates are considered favorable when compared to published rates in the 10^−5 to 10^−8 range. […]

K. pneumoniae = assay: Minimal inhibitory concentration (MIC) assay, broth microdilution; assay type: cell-based, Klebsiella pneumoniae; details: K. pneumoniae 700603; in the presence of PBS
Description: (§1) Daughter plates were prepared as follows.
(§2) Cultured media were prepared as follows.

S. aureus = assay: as above; assay type: cell-based, Staphylococcus aureus; details: S. aureus 29213; in the presence of PBS
Description: as §1, §2

P. aeruginosa [2] = assay: Microbial killing assay (percent killing, CFU); assay type: cell-based, Pseudomonas aeruginosa; details: for 50% Killing Activity, BAA-2108: MDR P. aeruginosa strain BAA-2108; for 50% Killing Activity, BAA-2110: MDR P. aeruginosa strain BAA-2110; for 50% Killing Activity, BAA-2114: MDR P. aeruginosa strain BAA-2114; for 50% Killing Activity, Pae 27853: P. aeruginosa strain 27853, Table 10
Description: Bactericidal assay: Direct killing activity of the ADC can be measured against two well described laboratory strains of P. aeruginosa (PA14 and PA01) and no less than three clinical strains of P. aeruginosa, including MDR and Pan-resistant strains. These assays are conducted in the absence of complement or effector cells. Activity in this assay can provide insight on the inherent killing activity of the ADC.
The microbial killing assay was performed as follows. Bacterial cells were grown aerobically overnight on agar plates at 37° C. Overnight plates were used to seed 30 ml cultures of growth media in 250 ml vented flasks. Cultures were grown aerobically at 37° C., shaking at 150 rpm. Growth was monitored at A600 nM and bacterial cells were harvested at mid-log growth. Ten ml of culture was pelleted at 4000×G for 10 minutes and washed one time with PBS plus 1% BSA before re-suspending in 2 ml PBS+BSA. […] Cultures were diluted to 1×10^4 cells/ml in PBS plus BSA. Test articles were diluted in PBS+1% BSA and 50 μl per concentration tested was loaded into a 96 well polypropylene microtiter plate. Fifty μl of diluted culture was added to all test wells as well as no compound control wells. Plates were shaken and incubated at 37° C., 90 minutes, static. Ten μl from each assay well was plated onto agar plates and incubated at 37° C. overnight. Percent killing was determined by the CFU for test wells compared to the CFU for no compound control wells.

[3] = P. aeruginosa 27853, in the presence of PBS
[4] = P. aeruginosa 39324, in the presence of PBS

(MAL)-(EG3)-GIGKFLKKAKKFGKAFVKILKK [peptide 21]
MIC Eco 25922 (E. coli): 8 µg/mL

Ceftazadime [reference compound]
MIC Pae 27853 (P. aeruginosa [1]; [3]): 1 µg/mL
MIC Pae 39324 (P. aeruginosa [1]; [4]): 1 µg/mL
MIC Pae 27853 (P. aeruginosa [1]; strain Pae27853): 1 µg/mL
MIC Pae 39324 (P. aeruginosa [1]; strain Pae39324): 2 µg/mL
50% hsMIC Pae 27853 (P. aeruginosa 27853): 1 µg/mL
hsMIC/MIC (P. aeruginosa 27853): 1

Colistin [reference compound]
resistance rate, Micro-dotting (P. aeruginosa ATCC 27853; 2x MIC): 1.08E−07
resistance rate, Standard (P. aeruginosa ATCC 27853; 2x MIC): 6.50E−08
resistance rate, Micro-dotting (P. aeruginosa ATCC 27853; 4x MIC): 2.10E−09
resistance rate, Standard (P. aeruginosa ATCC 27853; 4x MIC): 1.60E−09
resistance rate, Micro-dotting (P. aeruginosa ATCC 27853; 8x MIC): <1.1E−09
resistance rate, Standard (P. aeruginosa ATCC 27853; 8x MIC): <1.6E−09

GAFGNFLKGVAKKAGLKILSIAQCKLFGTC [peptide 70]
MIC Pae 27853 (P. aeruginosa [1]; P. aeruginosa 27853): 8 µg/mL
MIC Eco 25922 (E. coli): 4 µg/mL

GGG-D-Dab-cyclic(L-Dab-L-Dab-D-Leu-L-Phe-L-Dab-L-Dab-L-Leu) [GGG-Octapeptin]
MIC Pae 27853 (P. aeruginosa [1]; [3]): 2 µg/mL
MIC Pae 39324 (P. aeruginosa [1]; [4]): 2 µg/mL
MIC Kpn 700603 (K. pneumoniae): >128 µg/mL
MIC Sau 29213 (S. aureus): >128 µg/mL
50% hsMIC Pae 27853 (P. aeruginosa 27853): 2 µg/mL
hsMIC/MIC (P. aeruginosa 27853): 1

GGGGIGKFLKKAKKFGKAFVKILKK [Peptide P261]
MIC Eco 43745 (E. coli): 4 µg/mL

GGGGLRKRLRKFRNKIKEKLKKIGQKIQGLLPKLA [Peptide P271]
MIC Eco 43745 (E. coli): 4 µg/mL

GGGGLRRLGRKIAHGIKKYGPTILRIIRIAG [Peptide P293]
MIC Pae 27853 (P. aeruginosa [1]; [3]): 8 µg/mL
MIC Pae 39324 (P. aeruginosa [1]; [4]): 2 µg/mL
MIC Kpn 700603 (K. pneumoniae): 4 µg/mL
MIC Eco 43745 (E. coli): 4 µg/mL

GGGGRFKRFRKKFKKLFKKLSPVIPLLHLG [Peptide P295]
MIC Pae 27853 (P. aeruginosa [1]; [3]): 4 µg/mL
MIC Pae 39324 (P. aeruginosa [1]; [4]): 4 µg/mL
MIC (P. aeruginosa ATCC 27853) (P. aeruginosa [1]): 1 to 4 µg/mL
50% Killing Activity, BAA-2108 (P. aeruginosa [2]): 0.6 µg/mL
50% Killing Activity, BAA-2110 (P. aeruginosa [2]): 0.6 µg/mL
50% Killing Activity, BAA-2114 (P. aeruginosa [2]): 0.14 µg/mL
50% Killing Activity, Pae 27853 (P. aeruginosa [2]): 0.3 µg/mL
50% hsMIC Pae 27853 (P. aeruginosa 27853): 2 µg/mL
hsMIC/MIC (P. aeruginosa 27853): 0.5

GGGGSGGGGSGIGKFLKKAKKFGKAFVKILKK [peptide 23]
MIC Eco 25922 (E. coli): 8 µg/mL

GGGKFFRKLKKSVKKRAKEFFKKPRVIGVSIPF [Peptide P297]
MIC Pae 27853 (P. aeruginosa [1]; [3]): 4 µg/mL
MIC Pae 39324 (P. aeruginosa [1]; [4]): 2 µg/mL
MIC (P. aeruginosa ATCC 27853) (P. aeruginosa [1]): 1 to 4 µg/mL
50% Killing Activity, BAA-2108 (P. aeruginosa [2]): 0.28 µg/mL
50% Killing Activity, BAA-2110 (P. aeruginosa [2]): 0.28 µg/mL
50% Killing Activity, BAA-2114 (P. aeruginosa [2]): 0.07 µg/mL
50% Killing Activity, Pae 27853 (P. aeruginosa [2]): 0.04 µg/mL
50% hsMIC Pae 27853 (P. aeruginosa 27853): 8 µg/mL
hsMIC/MIC (P. aeruginosa 27853): 2
MIC Eco 43745 (E. coli): 2 µg/mL

GGGKRFKKFFKKLKNSVKKRAKKFFKKPRVIGVSIPF [Peptide P296]
MIC Pae 27853 (P. aeruginosa [1]; [3]): 4 µg/mL
MIC Pae 39324 (P. aeruginosa [1]; [4]): 2 µg/mL
50% hsMIC Pae 27853 (P. aeruginosa 27853): 1 µg/mL
hsMIC/MIC (P. aeruginosa 27853): 0.25
MIC Eco 43745 (E. coli): 4 µg/mL

GGGLLGDFFRKSKEKIGKEFKRIVQRIKDFLRNLVPRTES [Peptide P265]
MIC Kpn 700603 (K. pneumoniae): >128 µg/mL
50% hsMIC Pae 27853 (P. aeruginosa 27853): >128 µg/mL
hsMIC/MIC (P. aeruginosa 27853): >4
MIC Eco 43745 (E. coli): 8 µg/mL

GGGRGLRRLGRKIAHGVKKYGPTVLRIIKKYG [Peptide P294]
MIC Kpn 700603 (K. pneumoniae): 8 µg/mL
MIC Eco 43745 (E. coli): 2 µg/mL

GIGKFLKKAKKFGKAFVKILKK [peptide 109]
MIC Pae 27853 (P. aeruginosa [1]; P. aeruginosa 27853): 8 µg/mL
MIC Eco 25922 (E. coli): 4 µg/mL

GIGKFLKKAKKFGKAFVKILKK-NH2 [Peptide P32]
resistance rate, Micro-dotting (P. aeruginosa ATCC 27853; 2x MIC): 1.08E−07
resistance rate, Micro-dotting (P. aeruginosa ATCC 27853; 4x MIC): 9.59E−08
resistance rate, Standard (P. aeruginosa ATCC 27853; 4x MIC): <1.6E−09
growth of resistant colonies, standard protocol (P. aeruginosa ATCC 27853; 4×MIC and above): no growth was observed
resistance rate, Micro-dotting (P. aeruginosa ATCC 27853; 8x MIC): 8.02E−09
resistance rate, Standard (P. aeruginosa ATCC 27853; 8x MIC): <1.6E−09

GIGKFLKKAKKFGKAFVKILKKGGGGSGGGGS [peptide 24]
MIC Pae 27853 (P. aeruginosa [1]; P. aeruginosa 27853): 8 µg/mL

GLRKRLRKFRNKIKEKLKKIGQKIQGLLPKLA [Peptide 33]
MIC Pae 27853 (P. aeruginosa [1]; P. aeruginosa 27853): 8 µg/mL
MIC Eco 25922 (E. coli): 8 µg/mL

RLGNFFRKAKKKIGRGLKKIGQKIKDFLGNLVPRTES [peptide 128]
MIC Pae 27853 (P. aeruginosa [1]; P. aeruginosa 27853): 8 µg/mL
